These compounds were tested on Ctenocephalides felis, Diabrotica undecimpunctata, Nephotettix cincticeps, Rhipicephalus sanguineus (assay: Parasiticidal and pesticidal tests, Methods A to E taken together (active in one or more of the tests, test not specified)). Details: active = at least 90% control (A, 5 ppm or less), 90% (B, 10 ppm), 98% mortality (C, 100 ppm), 70% (D, 1000 ppm) or 70% (E, 100 ppm); test not given per compound.
Format: in vivo
Description: The following representative test procedures, using compounds of the invention, were conducted to determine the parasiticidal and pesticidal activity of compounds of the invention.
Method A: Screening Method to Test Systemicity of Compounds Against Ctenocephalides Felis (Cat Flea)
A test container was filled with 10 adults of Ctenocephalides felis. A glass cylinder was closed on one end with parafilm and placed on top of the test container. The test compound solution was then pipetted into bovine blood and added to the glass cylinder. The treated Ctenocephalides felis were held in this artificial dog test (blood 37° C., 40-60% relative humidity; Ctenocephalides felis 20-22° C., 40-60% relative humidity) and assessment performed at 24 and 48 hours after application.
Active compounds gave at least 90% control of Ctenocephalides felis at a test concentration of 5 ppm or less.
Method B: Diabrotica Undecimpunctata (Southern Corn Rootworm) Screen
Two days before application, seeds of maize were soaked in water under warm conditions to elicit fast germination. One day before application, eggs of Diabrotica undecimpunctata were transferred to one half of a Japanese filter paper placed in a plastic petri dish. Afterwards, a sprouted maize seed was placed on a moistened pad beside the filter paper. Three drops of 200 microlitres of test compound solution were carefully pipetted onto the egg. The remainder of the solution was placed on the maize and then the Petri dish was closed. The treated eggs in the Petri dishes were held in a climate chamber for 6 days. The compound efficacy (percentage of dead eggs and/or larvae in comparison to untreated control) was assessed 6 days after application using a binocular microscope. […]
The leaves of 12 rice plants having a stem length of 8 cm were dipped for 5 seconds into an aqueous solution of the formulated test compound. […] After 6 days storage, the percentage mortality of leafhopper larvae was determined. […]
Solutions of the test compounds were dropped onto filter paper, dried and the filter paper placed into test tubes and infested with 10 adults of Ctenocephalides felis. The treated Ctenocephalides felis were held in a climate chamber (26° C., 80% RH) and the percentage efficacy assessed 24 hours and 48 hours after application in comparison with the untreated control. […]
Solutions of the test compounds were dropped onto filter paper, dried and the filter paper placed into test tubes and infested with 20-30 larvae (L1) of Rhipicephalus sanguineus and the tubes closed with a clip. The treated Rhipicephalus sanguineus were held in a climate chamber (25° C., 90% RH) and the percentage efficacy assessed 24 hours after application in comparison with the untreated control. […]

Compound | active in one or more of the above tests
CNc1c([S+]([O-])C(F)(F)F)c(C(=N)N(C)OCc2c(Cl)cccc2Cl)nn1-c1c(Cl)cc(C(F)(F)F)cc1Cl (stereo not shown) [Compound 4-82, 1-(2,6-Dichloro-4-trifluoromethylphenyl)-3-[N-(2,6-dichlorobenzyloxy)-N-methyl-2-amidino]-5-methylamino-4-trifluoromethylsulfinylpyrazole] | active
CNc1c([S+]([O-])C(F)(F)F)c(C(=N)N(C)OCc2ccc(C(F)(F)F)cc2)nn1-c1c(Cl)cc(C(F)(F)F)cc1Cl (stereo not shown) [Compound 4-93, 1-(2,6-Dichloro-4-trifluoromethylphenyl)-3-[N-methyl-N-(4-trifluoromethylbenzyloxy)-2-amidino]-5-methylamino-4-trifluoromethylsulfinylpyrazole] | active
CNc1c(S(=O)(=O)C(F)(F)F)c(C(=N)N(C)OCc2ccc(C(F)(F)F)cc2)nn1-c1c(Cl)cc(C(F)(F)F)cc1Cl [Compound 4-128, 1-(2,6-Dichloro-4-trifluoromethylphenyl)-3-[N-methyl-N-(4-trifluoromethylbenzyloxy)-2-amidino]-5-methylamino-4-trifluoromethylsulfonylpyrazole] | active
CNc1c(S(=O)(=O)C(F)(F)F)c(C(N)=NOCc2ccccc2)nn1-c1c(Cl)cc(C(F)(F)F)cc1Cl [Compound 1-49, 1-(2,6-Dichloro-4-trifluoromethylphenyl)-3-(N-benzyloxy-2-amidino)-5-methylamino-4-trifluoromethylsulfonylpyrazole] | active

— patent US7514428B2, “Pesticidal 1-aryl-3-amidoxime-pyrazole derivatives” (Merial Limited, priority 2002, dated 2009)
